Tests used:
Assay in all cases: Test D pre-/postemergence controlled growth environment herbicide test
Format in all cases: in vivo
Details in all cases: scale 0 to 100
[1] = test system: chickweed (common chickweed, Stellaria media)
Method in brief: (§1)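 Preemergence: seeds sown in silt loam soil and sprayed with test chemicals in a non-phytotoxic solvent mixture containing surfactant. Postemergence: plants grown in peat/vermiculite planting medium and sprayed at 2 to 18 cm (1- to 4-leaf stage). Visual rating versus controls after 14 to 21 d, 0 (no effect) to 100 (complete control).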

[2] = test system: buckwheat, wild (wild buckwheat, Polygonum convolvulus)
Method in brief: as §1

[3] = test system: mustard, wild (wild mustard, Sinapis arvensis)
Method in brief: as §1

[4] = test system: blackgrass (Alopecurus myosuroides)
Method in brief: as §1

[5] = test system: Russian thistle (Salsola kali)
Method in brief: as §1

[6] = test system: radish, wild (wild radish, Raphanus raphanistrum)
Method in brief: as §1

[7] = test system: foxtail, green (green foxtail, Setaria viridis)
Method in brief: as §1

[8] = test system: field poppy (Papaver rhoeas)
Method in brief: as §1

[9] = test system: speedwell (bird's-eye speedwell, Veronica persica)
Method in brief: as §1

[10] = test system: pigweed (Amaranthus retroflexus)
Method in brief: as §1

[11] = test system: canarygrass (Phalaris minor)
Method in brief: as §1

Measured: Plant response rating

Cc1cc(=O)n(-c2ccc(F)cc2)nc1Oc1ccnc(C(F)(F)F)c1 [Compound 14, 2-(4-fluorophenyl)-5-methyl-6-[[2-(trifluoromethyl)-4-pyridinyl]oxy]-3 (2H)-pyridazinone]
55: [2]; Postemergence, 16 g ai/ha | [2]; Postemergence, 31 g ai/ha
15: [2]; Preemergence, 16 g ai/ha | [2]; Preemergence, 31 g ai/ha | [5]; Postemergence, 62 g ai/ha | [7]; Postemergence, 125 g ai/ha | [7]; Postemergence, 250 g ai/ha | [7]; Preemergence, 31 g ai/ha | [11]; Postemergence, 16 g ai/ha | [11]; Postemergence, 31 g ai/ha | [11]; Postemergence, 62 g ai/ha
80: [6]; Postemergence, 31 g ai/ha | [6]; Postemergence, 250 g ai/ha | [8]; Postemergence, 250 g ai/ha | [11]; Preemergence, 250 g ai/ha
75: [2]; Postemergence, 62 g ai/ha | [3]; Postemergence, 125 g ai/ha | [6]; Postemergence, 125 g ai/ha | [8]; Postemergence, 16 g ai/ha | [8]; Postemergence, 62 g ai/ha | [10]; Postemergence, 125 g ai/ha | [10]; Postemergence, 250 g ai/ha | [10]; Preemergence, 62 g ai/ha
95: [1]; Preemergence, 250 g ai/ha | [3]; Postemergence, 250 g ai/ha | [5]; Preemergence, 250 g ai/ha | [8]; Preemergence, 16 g ai/ha | [10]; Preemergence, 31 g ai/ha
35: [3]; Preemergence, 31 g ai/ha | [5]; Postemergence, 250 g ai/ha | [10]; Preemergence, 16 g ai/ha | [11]; Preemergence, 125 g ai/ha
70: [1]; Postemergence, 125 g ai/ha | [2]; Postemergence, 125 g ai/ha | [2]; Postemergence, 250 g ai/ha | [4]; Preemergence, 250 g ai/ha | [6]; Postemergence, 62 g ai/ha | [7]; Preemergence, 125 g ai/ha | [10]; Postemergence, 62 g ai/ha
50: [1]; Postemergence, 16 g ai/ha | [5]; Preemergence, 31 g ai/ha | [5]; Preemergence, 125 g ai/ha | [8]; Postemergence, 125 g ai/ha
85: [5]; Preemergence, 62 g ai/ha
90: [1]; Postemergence, 250 g ai/ha
65: [3]; Postemergence, 16 g ai/ha | [3]; Postemergence, 62 g ai/ha
40: [3]; Preemergence, 62 g ai/ha | [6]; Postemergence, 16 g ai/ha | [7]; Preemergence, 62 g ai/ha
60: [1]; Postemergence, 31 g ai/ha | [3]; Postemergence, 31 g ai/ha | [10]; Postemergence, 16 g ai/ha | [10]; Postemergence, 31 g ai/ha
0: [4]; Preemergence, 16 g ai/ha | [4]; Preemergence, 31 g ai/ha | [5]; Preemergence, 16 g ai/ha | [7]; Preemergence, 16 g ai/ha
10: [1]; Preemergence, 16 g ai/ha | [4]; Postemergence, 31 g ai/ha | [4]; Postemergence, 62 g ai/ha | [4]; Postemergence, 125 g ai/ha | [4]; Postemergence, 250 g ai/ha | [4]; Preemergence, 62 g ai/ha | [5]; Postemergence, 31 g ai/ha | [7]; Postemergence, 31 g ai/ha
45: [1]; Postemergence, 62 g ai/ha
20: [4]; Preemergence, 125 g ai/ha | [5]; Postemergence, 16 g ai/ha | [5]; Postemergence, 125 g ai/ha | [7]; Postemergence, 62 g ai/ha | [8]; Postemergence, 31 g ai/ha | [11]; Postemergence, 125 g ai/ha | [11]; Preemergence, 62 g ai/ha
100: [1]; Preemergence, 125 g ai/ha | [2]; Preemergence, 250 g ai/ha | [3]; Preemergence, 125 g ai/ha | [3]; Preemergence, 250 g ai/ha | [6]; Preemergence, 16 g ai/ha | [6]; Preemergence, 31 g ai/ha | [6]; Preemergence, 62 g ai/ha | [6]; Preemergence, 125 g ai/ha | [6]; Preemergence, 250 g ai/ha | [7]; Preemergence, 250 g ai/ha | [8]; Preemergence, 31 g ai/ha | [8]; Preemergence, 62 g ai/ha | [8]; Preemergence, 125 g ai/ha | [8]; Preemergence, 250 g ai/ha | [9]; Postemergence, 16 g ai/ha | [9]; Postemergence, 31 g ai/ha | [9]; Postemergence, 62 g ai/ha | [9]; Postemergence, 125 g ai/ha | [9]; Postemergence, 250 g ai/ha | [9]; Preemergence, 250 g ai/ha | [10]; Preemergence, 125 g ai/ha | [10]; Preemergence, 250 g ai/ha
5: [4]; Postemergence, 16 g ai/ha | [11]; Preemergence, 16 g ai/ha | [11]; Preemergence, 31 g ai/ha
30: [3]; Preemergence, 16 g ai/ha | [7]; Postemergence, 16 g ai/ha
25: [2]; Preemergence, 62 g ai/ha | [2]; Preemergence, 125 g ai/ha | [11]; Postemergence, 250 g ai/ha

COc1cc(=O)n(-c2ccc(F)cc2)nc1Cc1ccnc(C(F)(F)F)c1 [Compound 17, 2-(4-fluorophenyl)-5-methoxy-6-[[2-(trifluoromethyl)-4-pyridinyl]methyl]-3 (2H)-pyridazinone]
75: [2]; Postemergence, 250 g ai/ha | [8]; Postemergence, 62 g ai/ha | [8]; Postemergence, 125 g ai/ha
100: [1]; Postemergence, 250 g ai/ha | [1]; Postemergence, 500 g ai/ha | [1]; Preemergence, 31 g ai/ha | [1]; Preemergence, 62 g ai/ha | [1]; Preemergence, 125 g ai/ha | [1]; Preemergence, 250 g ai/ha | [1]; Preemergence, 500 g ai/ha | [2]; Postemergence, 500 g ai/ha | [2]; Preemergence, 250 g ai/ha | [2]; Preemergence, 500 g ai/ha | [3]; Postemergence, 250 g ai/ha | [3]; Postemergence, 500 g ai/ha | [3]; Preemergence, 31 g ai/ha | [3]; Preemergence, 62 g ai/ha | [3]; Preemergence, 125 g ai/ha | [3]; Preemergence, 250 g ai/ha | [3]; Preemergence, 500 g ai/ha | [5]; Postemergence, 125 g ai/ha | [5]; Postemergence, 250 g ai/ha | [5]; Postemergence, 500 g ai/ha | [5]; Preemergence, 62 g ai/ha | [5]; Preemergence, 125 g ai/ha | [5]; Preemergence, 250 g ai/ha | [5]; Preemergence, 500 g ai/ha | [6]; Postemergence, 250 g ai/ha | [6]; Postemergence, 500 g ai/ha | [6]; Preemergence, 62 g ai/ha | [6]; Preemergence, 125 g ai/ha | [6]; Preemergence, 250 g ai/ha | [6]; Preemergence, 500 g ai/ha | [7]; Preemergence, 125 g ai/ha | [7]; Preemergence, 250 g ai/ha | [7]; Preemergence, 500 g ai/ha | [8]; Postemergence, 500 g ai/ha | [8]; Preemergence, 31 g ai/ha | [8]; Preemergence, 62 g ai/ha | [8]; Preemergence, 125 g ai/ha | [8]; Preemergence, 250 g ai/ha | [8]; Preemergence, 500 g ai/ha | [9]; Postemergence, 62 g ai/ha | [9]; Postemergence, 125 g ai/ha | [9]; Postemergence, 250 g ai/ha | [9]; Postemergence, 500 g ai/ha | [9]; Preemergence, 31 g ai/ha | [9]; Preemergence, 62 g ai/ha | [9]; Preemergence, 125 g ai/ha | [9]; Preemergence, 250 g ai/ha | [9]; Preemergence, 500 g ai/ha | [10]; Preemergence, 62 g ai/ha | [10]; Preemergence, 125 g ai/ha | [10]; Preemergence, 250 g ai/ha | [10]; Preemergence, 500 g ai/ha
95: [7]; Preemergence, 62 g ai/ha | [10]; Postemergence, 500 g ai/ha
0: [2]; Preemergence, 31 g ai/ha | [4]; Preemergence, 31 g ai/ha | [5]; Preemergence, 31 g ai/ha | [11]; Preemergence, 31 g ai/ha | [11]; Preemergence, 62 g ai/ha
20: [3]; Postemergence, 31 g ai/ha | [4]; Postemergence, 250 g ai/ha | [10]; Postemergence, 31 g ai/ha | [11]; Postemergence, 62 g ai/ha | [11]; Postemergence, 125 g ai/ha
10: [1]; Postemergence, 31 g ai/ha | [2]; Postemergence, 31 g ai/ha | [2]; Postemergence, 62 g ai/ha | [2]; Preemergence, 62 g ai/ha | [4]; Postemergence, 31 g ai/ha | [4]; Postemergence, 62 g ai/ha | [4]; Postemergence, 125 g ai/ha | [4]; Preemergence, 62 g ai/ha | [7]; Postemergence, 31 g ai/ha | [7]; Postemergence, 62 g ai/ha | [9]; Postemergence, 31 g ai/ha | [10]; Preemergence, 31 g ai/ha | [11]; Postemergence, 31 g ai/ha | [11]; Preemergence, 125 g ai/ha
15: [7]; Postemergence, 125 g ai/ha | [7]; Preemergence, 31 g ai/ha
90: [4]; Preemergence, 500 g ai/ha | [8]; Postemergence, 250 g ai/ha
60: [1]; Postemergence, 125 g ai/ha | [4]; Preemergence, 250 g ai/ha | [6]; Postemergence, 125 g ai/ha
70: [10]; Postemergence, 250 g ai/ha
40: [1]; Postemergence, 62 g ai/ha | [2]; Postemergence, 125 g ai/ha
35: [6]; Postemergence, 62 g ai/ha | [11]; Postemergence, 500 g ai/ha
80: [3]; Postemergence, 125 g ai/ha | [7]; Postemergence, 500 g ai/ha
30: [2]; Preemergence, 125 g ai/ha | [4]; Preemergence, 125 g ai/ha | [5]; Postemergence, 31 g ai/ha | [5]; Postemergence, 62 g ai/ha | [6]; Postemergence, 31 g ai/ha | [6]; Preemergence, 31 g ai/ha | [7]; Postemergence, 250 g ai/ha | [10]; Postemergence, 62 g ai/ha | [10]; Postemergence, 125 g ai/ha | [11]; Postemergence, 250 g ai/ha | [11]; Preemergence, 250 g ai/ha
50: [3]; Postemergence, 62 g ai/ha | [4]; Postemergence, 500 g ai/ha | [8]; Postemergence, 31 g ai/ha | [11]; Preemergence, 500 g ai/ha
